Measurements: US6540999B1, “Immunomodulatory methods using Lewisx oligosacchardies” (President and Fellows of Harvard College, priority 1996, dated 2003)

Experiments:
IgE response [1] = assay: Serum IgE titers after intranasal administration, HSA as antigen; format: in vivo; details: coadministration with HSA, mice, FIG. 4A
IgE response [2] = test system: IgE response; design: species or system mice; details: mouse, in vivo
IgE response [3] = test system: IgE response; design: species or system mice; details: mouse, in vivo; remark: listed apart in the source
Granuloma macrophages = format: cell-based, C57BL/6 mice
Human PBMCs [4] = assay: IL-10 production by human PBMCs from allergic or cancer patients (ELISA); format: cell-based; design: unit not given here; details: 24 hours; LPS 20 μg/ml, HSA and conjugates 100 μg/ml
Text: (§1) Human PBMCs were obtained from: 1) an individual who was allergic to pollen; 2) an individual suffering from lung carcinoma and 3) an individual suffering from colon carcinoma.

Human PBMCs [5] = assay: Proliferation of human PBMCs from allergic or cancer patients (3H-thymidine uptake); format: cell-based; details: 3H-thymidine uptake at 90 hours; LPS 20 μg/ml, HSA and conjugates 100 μg/ml
Text: as §1

[6] = test system: naive splenocytes, T cell, B cell and non-T, non-B spleen cell populations; assay: IL-10 production in vitro by spleen cell subpopulations; format: cell-based, CBA mice; design: unit not given here
Text: (§2) In this example, the types of cells responsive to the multimeric sugar conjugates, and the types of cytokines produced, either in vitro or in vivo, were investigated further. For the in vitro studies, naive splenocytes were isolated from CBA mice and fractionated into T cell, B cell and non-T, non-B spleen cell populations. B cell populations were defined by expression of the B220 surface marker (i.e., B220^+ cells). T cell populations were defined by expression of CD5 or Thy surface markers (i.e., CD5^+ or Thy+).

[7] = test system: naive splenocytes, T cell, B cell and non-T, non-B spleen cell populations; assay: IFN-γ production in vitro by spleen cell subpopulations; format: cell-based, CBA mice; design: unit not given here
Text: as §2

[8] = naive CBA splenocytes, unfractionated

## lacto-N-fucopentaose III [free LNFPIII]
IgE response [1]
  reduction in the levels of total IgE as compared to administration of HSA alone: approximately 60%
IgE response [2]
  lowering of the total IgE response compared to administration of PLA2 alone: approximately 70%
  reduction of the PLA2-specific IgE response: approximately 40%
IgE response [3]
  inhibition of the SEA-specific IgE response (in words): marked decrease in the antigen-specific IgE response
  inhibition of the total IgE response to SEA (in words): only marginally inhibited

## phospholipase A2 [PLA2]
IgE response [2]
  PLA2-specific IgE response elicited (in words): elicits a strong PLA2-specific IgE response
  total IgE response elicited (in words): elicits a strong total IgE response

## CC(=O)N[C@H]1[C@H](O[C@H]2[C@@H](O)[C@@H](CO)O[C@@H](O[C@H]3[C@H](O)[C@@H](O)C(O)O[C@@H]3CO)[C@@H]2O)O[C@H](CO)[C@@H](O[C@@H]2O[C@H](CO)[C@H](O)[C@H](O)[C@H]2O)[C@@H]1O (mixture of isomers) [free LNT, lacto-N-neotetraose]
IgE response [2]
  lowering of the total IgE response compared to administration of PLA2 alone: not
IgE response [3]
  inhibition of the SEA-specific IgE response (in words): significantly less effective than free LNFPIII
  inhibition of the total IgE response to SEA (in words): had a greater inhibitory effect

## lipopolysaccharide [LPS]
Granuloma macrophages
  IL-10 LEVEL 24 HR: 7864 pg/mL
  IL-10 LEVEL 48 HR: 6559 pg/mL
  IL-10 LEVEL 72 HR: 4555 pg/mL
Human PBMCs [4]
  IL-10, COLON CARCINOMA: 8221
  IL-10, LUNG CARCINOMA: 1400
  IL-10, POLLEN ALLERGIC: 906
Human PBMCs [5]
  CPM, COLON CARCINOMA: 222 CPM
  CPM, LUNG CARCINOMA: 232 CPM
  CPM, POLLEN ALLERGIC: 1946 CPM
[6]; B220+ cells
  IL-10, B cells (B220+): 552
[6]; B220− cells
  IL-10, Non-B (B220−): 320
[6]; CD5+ cells
  IL-10, T cells (CD5+): 264
[6]; CD5− cells
  IL-10, Non-T (CD5−): 430
[6]; Thy+ cells
  IL-10, T cells (Thy+): 72
[6]; Thy− cells
  IL-10, Non-T (Thy−): 430
[6]; [8]
  IL-10, Total Spleen: 535
[7]; B220+ cells
  IFN-γ, B cells (B220+): 0
[7]; B220− cells
  IFN-γ, Non-B (B220−): 321
[7]; CD5+ cells
  IFN-γ, T cells (CD5+): 403
[7]; CD5− cells
  IFN-γ, Non-T (CD5−): 0
[7]; Thy+ cells
  IFN-γ, T cells (Thy+): 617
[7]; Thy− cells
  IFN-γ, Non-T (Thy−): 0
[7]; [8]
  IFN-γ, Total Spleen: 47
